Data as given in patent US5328913A, “Minoxidil analogs as inhibitors of cell proliferation and lysyl hydroxylase” (priority 1992, dated 1994).
Where a name gives a salt, the structure may show the parent alone.

Assays:
lysyl hydroxylase [1] = assay: Lysyl hydroxylase activity in extracts of treated human skin fibroblasts (Example 1, tritium-release assay); format: cell-based; details: cultured fibroblasts; for effect on lysyl hydroxylase activity (in words): 72 h, Example 1
Description: (§1) Cultures of human skin fibroblasts grown to confluence were incubated for 72 h in medium supplemented with 1% ethanol containing various concentrations of minoxidil or deoxyminoxidil as indicated. Cells were then harvested, and the enzyme activities in extracts of these cells were measured by tritium-release assays (Murad and Pinnell, J. Biol. Chem. 262:11,973 (1987)). The results are expressed as percentages of zero-concentration values.
(§2) Cultures of human skin fibroblasts grown to confluence were incubated for 72 h in medium supplemented with 1% ethanol containing various concentrations of minoxidil or with 1% acetone containing various concentrations of minoxidil sulfate, as indicated. Cells were then harvested, and the enzyme activities in extracts of these cells were measured by tritium release assays (Murad and Pinnell, J. Biol. Chem. 262:11,973 (1987)). The results are expressed as percentages of zero-concentration values.
(§3) Skin fibroblast cultures derived from an apparently normal child (GM05659) were obtained from the Institute for Medical Research, Camden, N.J. The cells were subcultured by trypsinization and used before 25 population doublings. Typically, 4×10^5 cells were seeded onto 100-mm (diameter) plastic petri dishes and allowed to grow in 10 ml of Dulbecco's modified Eagle's minimum essential medium containing 5.6 mM glucose, buffered in pH 7.4 with 24 mM sodium biocarbonate/25 mM Hepes and supplemented with 20% (v/v) calf serum which had been inactivated for 30 min at 56° C. The cells were incubated at 37° C. in a humidified atmosphere of 5% CO2 plus 95% air.
(§4) After a week, the medium was replaced with medium supplemented with 0.5% heat-inactivated diaylzed calf serum, and the incubation was continued for 72 h in the presence of minoxidil or one of its structural analogs. The compounds were dissolved in 95% ethanol, except minoxidil sulfate which was dissolved in acetone; the final solvent concentration was 1% (v/v). During the last 3 h of incubation, cells received 100 μM Na L-ascorbate to ensure complete hydroxylation of the polypeptide precursors of precollagen (Murad et al, J. Invest. Dermatol. 75:404 (1980)).
The medium was then removed and the cells were washed twice with a solution containing 0.14 M NaCl, 5 mM KCl, 0.3 mM Na2 PO4, and 0.4 mM KH2 PO4, adjusted to pH 7.4. The cells were detached from the plates with a solution containing 0.05% trypsin, 0.54 mM EDTA, 5.5mM glucose, 6.90mM NaHCO3, […], and 5 mM KCl. The trypsinization was terminated with 2 vol of 20% serum-supplemented medium, and the cell number in an aliquot of the suspension was determined using a Coulter counter.
The detached cells were collected by centrifugation at 500g for 6 min at 4° C. washed twice by suspending in phosphate-buffered NaCl/KCl as above, and then centrifuged. The cell pellet was suspended in a medium (1 ml/5×10^6 cells) containing 0.2 M NaCl, 0.1 M glycine, 50 μM dithiothreitol, 20 mM Tris-HCl, buffer (pH 7.5), 0.1% Triton X-100, and 0.01% soybean trypsin inhibitor. The suspension was sonicated for 30 s using a Branson sonifier cell disrupter. The lysate was centrifuged at 27,000g for 1 h at 4° C., and the resulting supernatant was used for prolyl and lysyl hydroxylase assays (Murad and Pinnell, J. Biol. Chem. 262:11, 973 (1987)). The enzyme activities are based on a unit of soluble cell protein.
(§5) The protein content of cell extracts was determined by a dye-binding technique using Bio-Rad reagent and protein standard (Bradford, Anal. Biochem. 72:248 (1976)).
Note: Cultures of human skin fibroblasts grown to confluence were
incubated for 72 h in medium supplemented with 1% ethanol containing 1 mM
of the indicated compounds. Cells were then harvested, and the enzyme
activity in extracts of these cells was measured by a tritiumrelease
incubated for 72 h in medium supplemented with 1% ethanol containing 1 nM

prolyl hydroxylase = assay: Prolyl hydroxylase activity in extracts of treated human skin fibroblasts (Example 1, tritium-release assay); format: cell-based; details: cultured fibroblasts; for effect on prolyl hydroxylase activity (in words): 72 h, Example 1
Description: as §1, §2, §3, §4
The medium was then removed and the cells were washed twice with a solution containing 0.14 M NaCl, 5 mM KCl, 0.3 mM Na2 PO4, and 0.4 mM KH2 PO4, adjusted to pH 7.4. […] The trypsinization was terminated with 2 vol of 20% serum-supplemented medium, and the cell number in an aliquot of the suspension was determined using a Coulter counter. […]
as §5

[2] = tested on: enzyme activity (lysyl hydroxylase, prolyl hydroxylase); assay: Direct inhibition of enzyme activity, mixing experiments with extracts of treated cells and controls; format: biochemical, human
Description: The functional significance of the nitroxide oxygen in minoxidil was evaluated with a deoxy analog. Shown in FIG. 2 is a comparison of the effects of minoxidil and deoxyminoxidil on the activities of lysyl hydroxylase and the control enzyme prolyl hydroxylase in cultured fibroblasts.

lysyl hydroxylase [3] = biological target: T1, lysyl hydroxylase (Homo sapiens, UniProt Q02809); assay: Direct inhibition of enzyme activity in vitro / mixing experiments with cell extracts; format: biochemical
T1 sequence (Q02809 19-727): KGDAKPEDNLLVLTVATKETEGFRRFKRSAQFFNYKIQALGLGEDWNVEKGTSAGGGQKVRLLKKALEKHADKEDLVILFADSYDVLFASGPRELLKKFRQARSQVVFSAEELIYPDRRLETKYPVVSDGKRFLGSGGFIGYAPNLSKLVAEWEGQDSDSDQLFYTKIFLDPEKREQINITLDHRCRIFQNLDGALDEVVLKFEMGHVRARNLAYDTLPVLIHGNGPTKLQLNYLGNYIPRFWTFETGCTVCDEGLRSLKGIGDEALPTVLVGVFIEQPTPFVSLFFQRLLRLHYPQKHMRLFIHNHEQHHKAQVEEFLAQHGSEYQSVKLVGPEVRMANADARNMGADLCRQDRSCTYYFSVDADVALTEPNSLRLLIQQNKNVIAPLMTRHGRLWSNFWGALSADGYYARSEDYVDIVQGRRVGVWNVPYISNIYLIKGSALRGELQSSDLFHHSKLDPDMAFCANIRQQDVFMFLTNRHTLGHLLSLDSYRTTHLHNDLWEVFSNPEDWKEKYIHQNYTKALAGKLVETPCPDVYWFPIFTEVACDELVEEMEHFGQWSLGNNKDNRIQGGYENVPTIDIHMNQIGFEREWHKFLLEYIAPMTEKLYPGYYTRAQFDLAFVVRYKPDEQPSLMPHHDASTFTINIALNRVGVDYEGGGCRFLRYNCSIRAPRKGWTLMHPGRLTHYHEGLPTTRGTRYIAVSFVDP

[4] = Solubility with acetone as solvent; format: physicochemical; details: acetone as the solvent; concentrations higher than 500 μM could not be tested

Compound	IC50 (lysyl hydroxylase [1]; 72 h (FIG. 2), read-out: concentration required for 50% inhibition (lysyl hydroxylase))	effect on lysyl hydroxylase activity (in words) (lysyl hydroxylase [1])	IC50 (prolyl hydroxylase; 72 h (FIG. 2), read-out: concentration required for 50% effect (prolyl hydroxylase))	effect on prolyl hydroxylase activity (in words) (prolyl hydroxylase)	direct inhibition of enzyme activity (in words) [2]	inhibition of lysyl hydroxylase activity in vitro (in words) (lysyl hydroxylase [3])	solubility (in words) [4]
Nc1cc(N2CCCCC2)nc(N)n1 [Deoxyminoxidil]	118 µM	suppressed lysyl hydroxylase activity in a manner remarkably similar to that observed with minoxidil	260 µM	suppressed prolyl hydroxylase activity in a dose-related manner	no evidence for direct inhibition of enzyme activity	–	–
Nc1cc(N2CCCCC2)nc(N)[n+]1OS(=O)(=O)[O-] [Minoxidil sulfate]	–	suppressed lysyl hydroxylase activity in a manner almost identical to that observed with minoxidil	–	no change in prolyl hydroxylase activity	–	failed to inhibit lysyl hydroxylase activity in vitro	limited solubility
